Results on nine compounds are retold here after US12325708B2, “Adenosine 2 receptor antagonists” (Nektar Therapeutics, priority 2019, dated 2025).

The nature of series [1]: Plasma pharmacokinetic parameters following intravenous (IV) or oral (PO) administration in rats. The series is classed as in vivo, Sprague-Dawley rats. The following applies: male, Sprague-Dawley, rat, plasma, Table 6; for AUC / bioavailability: 2.5 mg/kg, oral (PO) administration essentially as described in Example 28; for clearance: intravenous, 0.5 mg/kg, essentially as described in Example 28; for bioavailability: po. The procedure:
Adult male Sprague-Dawley rats (230-250 g) (Charles River Labs, Hollister, CA) were utilized for the study. There were 2 rats/group. All animals were food fasted overnight with water provided ad libitum at all times. Compounds 1, 4, 14 and 19 were synthesized as described in Examples 2, 17, 7, and 12, respectively, and formulated in injectable water.
(§1) The morning of each dosing, individual doses were calculated based on current body weights on the day of dosing. The jugular vein cannula (JVC) and the carotid artery cannula (CAC) were externalized, flushed with HEP/saline (10 IU/mL HEP/mL saline), plugged, and labeled to identify the jugular vein and the carotid artery. The IV group animals were dosed at 0.5 mg/kg of Compound 1, 4, 14 or 19, respectively, intravenously via the jugular vein, while the PO dose was administered 2.5 mg/kg of Compound 1, 4, 14 or 19, respectively, orally via gavage. For the IV group, immediately following the dose of test article, the dead volume of the catheter was flushed with 0.9% saline to ensure the animals received the full dose.
Approximately 0.2 mL of blood was collected per time point from JVC. Blood samples were collected at 2 (IV group only), 5, 15, 30, 60, 120, 240, 360, 420 (Compound 19 only), 480, 720 (Compound 19 only), and 1440 minutes via the CAC and transferred immediately into K2EDTA coated tubes pre-loaded 2 μl with quenching cocktail and placed on wet ice. The samples were centrifuged within 30 min after collection at 10,000 RPM for 5 minutes and the resulting plasma was separated. Plasma was transferred into microfuge tubes and placed on dry ice immediately. The plasma samples were stored at approximately −70° C. until bioanalysis.
Plasma samples were extracted by protein precipitation with acetonitrile containing 0.1% formic acid and doxepin for Compound 1 (available from Sigma-Aldrich) or SCH58261 for Compounds 4, 14 and 19 (available from Sigma-Aldrich) as an internal standard. Following vortex and centrifugation, supernatant was diluted 3-fold with water containing 0.1% formic acid and analyzed by LC-MS/MS.
Pharmacokinetic parameters (PK) were determined by non-compartmental analysis (NCA) using Phoenix 64 WinNonlin (version 8) and Dotmatics (version 5.0). Nominal doses and time points were used for the analysis.
The following PK parameters were estimated using plasma concentration-time profile of each animal with the results presented in Table 3: • AUCinf Area under the concentration-time from zero to time infinity • AUClast Area under the concentration-time from zero to time of last concentration value • F Bioavailability • CL Total body clearance • Cmax Maximum (peak) concentration • MRTlast Mean residence time to last observable concentration • Tmax Time to reach maximum or peak concentration following administration • Vss Volume of distribution at steady state
Adult male Sprague-Dawley rats (230-250 g) (Charles River Labs, Hollister, CA) were utilized for the study. There were 2 rats/group. All animals were food fasted overnight with water provided ad libitum at all times. Compound 1 was synthesized as described in Example 2 and formulated in injectable water.
as §1, with “1” for “1, 4, 14 or 19, respectively,”
Approximately 0.2 mL of blood was collected per time point from JVC. […]

A short description of series [2]: Brain-to-plasma ratio (B/P) after administration. In kind it is in vivo, Sprague-Dawley rats. Conditions: Sprague-Dawley, rat, oral, 2.5 mg/kg; Table 6; brain-to-plasma ratio at 1 h. The text has this:
A similar unexpected result was obtained when the phenyl ring present on Compound 1 was replaced with a halogen substituted pyridine. The halogen was previously introduced on the phenyl ring with the aim of blocking a possible metabolic soft-spot, with similar results observed as for Compound 1 in terms of exposure, clearance and bioavailability (Compound 10 and Compound 15). The substituted pyridine ring was designed to modulate the lipophilicity and polar surface area, as well as to address metabolic soft-spot concerns. Clearance and bioavailability parameters remain similar between substituted phenyl and pyridine (Compound 4 and Compound 14) analogs, which span a range in cLogP of 2.7-3.2. It was therefore surprising the significant improvement in exposure and clearance observed for the more lipophilic Compound 19. […] A compound is commonly deemed to be a brain penetrant if the brain-to-blood/plasma concentration ratio (B/P) is greater than 0.04 using methods as known in the art (Schaffer, Annual Reports in Medicinal Chemistry, 45:55-70, 2010).
Plasma pharmacokinetic parameters were determined following oral (PO) administration of further compounds essentially as described in Example 28 with the results shown in Table 6.

The next series has as its target T1, A1 receptor (Homo sapiens, UniProt P30542).
T1 construct: purchased
T1 sequence (P30542 1-326): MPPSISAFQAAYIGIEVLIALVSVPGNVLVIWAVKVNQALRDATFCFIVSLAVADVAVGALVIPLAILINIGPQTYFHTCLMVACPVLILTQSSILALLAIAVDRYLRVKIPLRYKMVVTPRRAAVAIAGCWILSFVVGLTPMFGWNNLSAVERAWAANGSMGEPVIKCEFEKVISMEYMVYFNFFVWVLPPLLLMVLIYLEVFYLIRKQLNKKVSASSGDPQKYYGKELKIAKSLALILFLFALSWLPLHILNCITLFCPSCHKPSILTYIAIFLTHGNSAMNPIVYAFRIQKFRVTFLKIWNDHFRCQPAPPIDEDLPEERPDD
In words: Radioligand receptor binding assay, A1 receptor. Conditions: cell membranes overexpressing A1 receptor, read-out: Potency Ki A1. As to the method: (§2) Using conventional receptor binding assay techniques, Compounds 1-24 were assayed to determine binding activity at the A2A, A1, and A3 receptors with the results shown in Table 7.
(§3) Receptor binding affinity of Compounds 1-24 was measured using radioligand binding assays using commercially obtained cell membranes prepared from cell lines overexpressing the A2A, A1, or A3 receptors. Briefly, cell membrane preparations from cells expressing the specific receptor were mixed with the appropriate [^3H]-labeled tracer for the specific receptor and the test compound or a known inhibitor of receptor-ligand binding. Following 60 min incubation at room temperature to allow receptor-ligand complex formation, the complexes were collected by filtration, washed with 50 mM Tris HCl (pH 7.5) to remove radioligand that was not receptor-bound, and the remaining radioactivity determined by liquid scintillation counting. Specific radioligand binding was calculated for each test compound concentration and IC50 values were determined by non-linear, regression analysis. Inhibition constants (Ki) were calculated using the equation of Cheng and Prusoff using the observed IC50 of the tested compound, the concentration of radioligand employed in the assay and the experimentally determined values for the Kd of the ligand.

Another series addresses T2, A2A receptor (Homo sapiens, UniProt P29274).
T2 construct: purchased
In words: Radioligand receptor binding assay, A2A receptor. The following applies: cell membranes overexpressing A2A receptor, read-out: Potency Ki A2A. As to the method: as §2, §3

T2 sequence (P29274 whole entry): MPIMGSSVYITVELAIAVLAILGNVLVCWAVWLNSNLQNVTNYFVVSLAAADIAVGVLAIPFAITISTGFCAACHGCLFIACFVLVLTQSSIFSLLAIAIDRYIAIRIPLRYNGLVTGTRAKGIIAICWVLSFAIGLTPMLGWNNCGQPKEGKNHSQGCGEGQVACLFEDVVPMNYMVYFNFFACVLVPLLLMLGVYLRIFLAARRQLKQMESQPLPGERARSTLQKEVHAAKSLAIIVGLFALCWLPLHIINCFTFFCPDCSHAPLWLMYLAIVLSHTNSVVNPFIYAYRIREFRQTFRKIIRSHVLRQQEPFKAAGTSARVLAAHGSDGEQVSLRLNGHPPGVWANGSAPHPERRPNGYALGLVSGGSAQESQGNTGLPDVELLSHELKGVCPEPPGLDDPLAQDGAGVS

As for `COCCOc1ccc(N2CCN(CCN(C)c3nc(N)n4nc(-c5ncco5)nc4n3)CC2)cc1` [Compound 2, N^5-(2-{4-[4-(2-methoxyethoxy)phenyl]piperazin-1-yl}ethyl)-N^5-methyl-2-(1,3-oxazol-2-yl)[1,2,4]triazolo[1,5-a][1,3,5]triazine-5,7-diamine], in series [1], the exposure (AUC) – broadly, the area under the concentration-time curve, a measure of exposure – was found to be 320 ng·h/mL; the clearance stood at 54 mL/min/kg; the bioavailability – broadly, dose-corrected exposure relative to a reference, in per cent – worked out at 43%. Besides, the Kp (in general, the ratio of the level in a tissue or fluid to that in plasma or blood) at 1 h in series [2] came to 0.04. For the same compound, the Ki – broadly, the dissociation constant of the complex between target and ligand, obtained from inhibition or displacement – on A1 receptor was 13 µM. On A2A receptor, the Ki came out at 7 nM.

Take `COCCOc1cnc(N2CCN(CCN(C)c3cc4nc(-c5ncco5)nn4c(N)n3)CC2)nc1` [Compound 3, N^7-(2-{4-[5-(2-methoxyethoxy)pyrimidin-2-yl]piperazin-1-yl}ethyl)-N^7-methyl-2-(1,3-oxazol-2-yl)[1,2,4]triazolo[1,5-c]pyrimidine-5,7-diamine]: in series [1], the AUC was 376 ng·h/mL, the clearance was found to be 47 mL/min/kg and the bioavailability is 44%. In series [2], the concentration ratio (Kp) at 1 h was determined as 0.04. In addition, the inhibition constant (Ki) on A1 receptor came to 20.1 µM. The Ki at A2A receptor was found to be 10 nM.

As to `CN(CCN1CCN(c2ccc(OCCOC(F)(F)F)cc2)CC1)c1cc2nc(-c3ncco3)nn2c(N)n1` [Compound 5, N^7-methyl-2-(1,3-oxazol-2-yl)-N^7-[2-(4-{4-[2-(trifluoromethoxy)ethoxy]phenyl}piperazin-1-yl)ethyl][1,2,4]triazolo[1,5-c]pyrimidine-5,7-diamine], in series [1], the exposure (AUC) worked out at 971 ng·h/mL, the clearance stood at 21 mL/min/kg and the bioavailability came to 48%. Besides, the partition ratio (Kp) at 1 h in series [2] was determined as 0.1. The inhibition constant (Ki) at A1 receptor was > 10 µM. The Ki at A2A receptor stood at 7 nM.

In series [1], `[2H]C([2H])([2H])N(CCN1CCN(c2ccc(OCCOC)cc2)CC1)c1cc2nc(-c3ncco3)nn2c(N)n1` [Compound 6, N^7-(2-{4-[4-(2-methoxyethoxy)phenyl]piperazin-1-yl}ethyl)-N^7-(^2H3)methyl-2-(1,3-oxazol-2-yl)[1,2,4]triazolo[1,5-c]pyrimidine-5,7-diamine] showed an exposure (AUC) of 852 ng·h/mL, a clearance of 34 mL/min/kg and a bioavailability of 64%. In series [2], the Kp at 1 h is 0.05. Also, the Ki on A1 receptor was > 4 µM. Further, at A2A receptor, the Ki was determined as 12 nM.

In series [1], `[2H]C([2H])([2H])OCCOc1ccc(N2CCN(CCN(C)c3cc4nc(-c5ncco5)nn4c(N)n3)CC2)cc1` [Compound 7, N^7-methyl-N^7-{2-[4-(4-{2-[(^2H3)methyloxy]ethoxy}phenyl)piperazin-1-yl]ethyl}-2-(1,3-oxazol-2-yl)[1,2,4]triazolo[1,5-c]pyrimidine-5,7-diamine] showed an exposure (AUC) of 1020 ng·h/mL, a clearance of 24 mL/min/kg and a bioavailability of 60%. Besides, the Kp at 1 h in series [2] is 0.07. Further, at A1 receptor, the Ki is > 4 µM. Further, the Ki at A2A receptor was found to be 13 nM.

Turning to `[2H]C([2H])([2H])OCCOc1ccc(N2CCN(CCN(c3cc4nc(-c5ncco5)nn4c(N)n3)C([2H])([2H])[2H])CC2)cc1` [Compound 8, N^7-(^2H3)methyl-N^7-{2-[4-(4-{2-[(^2H3)methyloxy]ethoxy}phenyl)piperazin-1-yl]ethyl}-2-(1,3-oxazol-2-yl)[1,2,4]triazolo[1,5-c]pyrimidine-5,7-diamine], in series [1], the exposure (AUC) came out at 1200 ng·h/mL, the clearance came to 22 mL/min/kg and the bioavailability stood at 63%. Moreover, the Kp at 1 h in series [2] is 0.04. For the same compound, the inhibitory constant (Ki) at A1 receptor is > 4 µM. Moreover, the inhibition constant (Ki) on A2A receptor was found to be 4 nM.

Take `[2H]C([2H])(N1CCN(c2ccc(OCCOC)cc2)CC1)C([2H])([2H])N(C)c1cc2nc(-c3ncco3)nn2c(N)n1` [Compound 9, N^7-[2-{4-[4-(2-methoxyethoxy)phenyl]piperazin-1-yl}(^2H4)ethyl]-N^7-methyl-2-(1,3-oxazol-2-yl)[1,2,4]triazolo[1,5-c]pyrimidine-5,7-diamine]: in series [1], the AUC was determined as 1170 ng·h/mL, the clearance was found to be 23 mL/min/kg and the bioavailability turned out to be 65%. Moreover, in series [2], the concentration ratio (Kp) at 1 h worked out at 0.04. Further, the inhibition constant (Ki) on A1 receptor was > 4 µM. For the same compound, the inhibition constant (Ki) on A2A receptor came to 6 nM.

Take `[2H]C([2H])([2H])OCCOc1ccc(N2CCN(CCN(C)c3cc4nc(-c5ncco5)nn4c(N)n3)CC2)c(F)c1` [Compound 10, N^7-{2-[4-(2-fluoro-4-{2-[(^2H3)methyloxy]ethoxy}phenyl)piperazin-1-yl]ethyl}-N^7-methyl-2-(1,3-oxazol-2-yl)[1,2,4]triazolo[1,5-c]pyrimidine-5,7-diamine]: in series [1], the AUC is 819 ng·h/mL, the clearance was 30 mL/min/kg and the bioavailability was 57%. Moreover, in series [2], the partition ratio (Kp) at 1 h was determined as 0.09. In addition, the inhibition constant (Ki) at A1 receptor was > 10 µM. On A2A receptor, the inhibition constant Ki was 5.5 nM.

Regarding `[2H]C([2H])([2H])OCCOc1cnc(N2CCN(CCN(C)c3cc4nc(-c5ncco5)nn4c(N)n3)CC2)c(F)c1` [Compound 11, N^7-{2-[4-(3-fluoro-5-{2-[(^2H3)methyloxy]ethoxy}pyridin-2-yl)piperazin-1-yl]ethyl}-N^7-methyl-2-(1,3-oxazol-2-yl)[1,2,4]triazolo[1,5-c]pyrimidine-5,7-diamine], in series [1], the AUC came to 708 ng·h/mL, the clearance stood at 30 mL/min/kg and the bioavailability turned out to be 63%. Besides, at A1 receptor, the inhibitory constant (Ki) stood at 16.9 µM. Besides, the Ki on A2A receptor was 2.3 nM.
